ChEMBL document CHEMBL4043139, “Fluoro and pentafluorothio analogs of the antitumoral curcuminoid EF24 with superior antiangiogenic and vascular-disruptive effects” (Bioorg Med Chem, 2017)
The source made the active and inactive calls. The rule behind the calls is not given here.

How the values were obtained:
[1] = system: Gallus gallus; test: Vascular disruptive activity in 6 days post fertilized chicken egg chorioallantoic/vitelline membrane assessed as degradation of blood vessels at 10 nmol administered topically measured after 6 hrs by stereo-microscopic analysis; assay type: functional
[2] = system: 518A2; test: Cytotoxicity against human 518A2 cells after 72 hrs by MTT assay; assay type: functional, cell-based
[3] = system: HT-29; test: Cytotoxicity against human HT-29 cells after 72 hrs by MTT assay; assay type: functional, cell-based
[4] = system: HCT-116; test: Cytotoxicity against human HCT116 cells after 72 hrs by MTT assay; assay type: functional, cell-based
[5] = system: DLD-1; test: Cytotoxicity against human DLD1 cells after 72 hrs by MTT assay; assay type: functional, cell-based
[6] = system: PANC-1; test: Cytotoxicity against human PANC1 cells after 72 hrs by MTT assay; assay type: functional, cell-based
[7] = (§1) Cytotoxicity against human KB-V1/Vbl cells after 72 hrs by MTT assay; assay type: functional, cell-based
[8] = system: KB-V1/Vbl; test: as §1; assay type: functional, cell-based
[9] = (§2) Cytotoxicity against human MCF7/Topo cells after 72 hrs by MTT assay; assay type: functional, cell-based
[10] = system: MCF7/Topo; test: as §2; assay type: functional, cell-based
[11] = (§3) Cytotoxicity against human U87 cells after 72 hrs by MTT assay; assay type: functional, cell-based, U-87MG ATCC; conditions: U-87 MG
[12] = system: U-87MG ATCC; test: as §3; assay type: functional, cell-based
[13] = Cytotoxicity against HDFa after 72 hrs by MTT assay; assay type: cell-based; conditions: Homo sapiens
[14] = system: HT-29; test: Cell cycle arrest in human HT-29 cells assessed as accumulation at sub-G1 phase at 1 uM after 24 hrs by propidium iodide staining based flow cytometric analysis (reference value: 0.9 +/- 0.1%); assay type: functional
[15] = system: HT-29; test: Cell cycle arrest in human HT-29 cells assessed as accumulation at sub-G1 phase at 2.5 uM after 24 hrs by propidium iodide staining based flow cytometric analysis (reference value: 0.9 +/- 0.1%); assay type: functional
[16] = system: HT-29; test: Cell cycle arrest in human HT-29 cells assessed as accumulation at sub-G1 phase at 5 uM after 24 hrs by propidium iodide staining based flow cytometric analysis (reference value: 0.9 +/- 0.1%); assay type: functional
[17] = system: HT-29; test: Cell cycle arrest in human HT-29 cells assessed as accumulation at G1 phase at 1 uM after 24 hrs by propidium iodide staining based flow cytometric analysis (reference value: 68 +/- 0.9%); assay type: functional
[18] = system: HT-29; test: Cell cycle arrest in human HT-29 cells assessed as accumulation at G1 phase at 2.5 uM after 24 hrs by propidium iodide staining based flow cytometric analysis (reference value: 68 +/- 0.9%); assay type: functional
[19] = system: HT-29; test: Cell cycle arrest in human HT-29 cells assessed as accumulation at G1 phase at 5 uM after 24 hrs by propidium iodide staining based flow cytometric analysis (reference value: 68 +/- 0.9%); assay type: functional
[20] = system: HT-29; test: Cell cycle arrest in human HT-29 cells assessed as accumulation at S phase at 1 uM after 24 hrs by propidium iodide staining based flow cytometric analysis (reference value: 15.6 +/- 0.3%); assay type: functional
[21] = system: HT-29; test: Cell cycle arrest in human HT-29 cells assessed as accumulation at S phase at 2.5 uM after 24 hrs by propidium iodide staining based flow cytometric analysis (reference value: 15.6 +/- 0.3%); assay type: functional
[22] = system: HT-29; test: Cell cycle arrest in human HT-29 cells assessed as accumulation at S phase at 5 uM after 24 hrs by propidium iodide staining based flow cytometric analysis (reference value: 15.6 +/- 0.3%); assay type: functional
[23] = system: HT-29; test: Cell cycle arrest in human HT-29 cells assessed as accumulation at G2/M phase at 1 uM after 24 hrs by propidium iodide staining based flow cytometric analysis (reference value: 15.5 +/- 0.5%); assay type: functional
[24] = system: HT-29; test: Cell cycle arrest in human HT-29 cells assessed as accumulation at G2/M phase at 2.5 uM after 24 hrs by propidium iodide staining based flow cytometric analysis (reference value: 15.5 +/- 0.5%); assay type: functional
[25] = system: HT-29; test: Cell cycle arrest in human HT-29 cells assessed as accumulation at G2/M phase at 5 uM after 24 hrs by propidium iodide staining based flow cytometric analysis (reference value: 15.5 +/- 0.5%); assay type: functional
[26] = system: HT-29; test: Upregulation of cyclin B1 expression in human HT-29 cells at 0.5 to 0.75 uM after 24 hrs by Western blot analysis; assay type: functional, cell-based
[27] = species on record: Homo sapiens; test: Inhibition of NF-kappaB in human 518A2 cells assessed as reduction in p65 subunit expression at 0.5 to 1 uM after 24 hrs by Western blot analysis; assay type: cell-based
[28] = system: 518A2; test: Anti-migratory activity in human 518A2 cells assessed as wound closure at 250 nM after 24 hrs by light microscopic analysis; assay type: functional, cell-based
[29] = system: 518A2; test: Anti-migratory activity in human 518A2 cells assessed as wound closure at 250 nM after 48 hrs by light microscopic analysis (reference value: 100%); assay type: functional
[30] = species on record: Danio rerio; test: Antiangiogenic activity in 72 hrs post fertilized zebra fish embryo harboring fli1a:EGFP assessed as area of subintestinal veins at 10 uM after 48 hrs by fluorescence microscopic analysis (reference value: 100%); assay type: functional
[31] = Toxicity in 6 days post fertilized chicken egg chorioallantoic/vitelline membrane assessed as irritation of chorioallantoic/vitelline membrane at 10 nmol administered topically measured after 24 hrs; parameters: species or system Gallus gallus; conditions: in vivo, topical_or_ocular
[32] = system: Gallus gallus; test: Vascular disruptive activity in 6 days post fertilized chicken egg assessed as area covered by blood vessels at 10 nmol administered topically measured after 6 hrs by light microscopic analysis relative to control; assay type: functional
[33] = system: U-87MG ATCC; test: Anti-vasculogenic activity in human U87 cells assessed as reduction in formation of cord-like structures at 1 uM after 24 hrs by matrigel based light microscopic analysis; assay type: functional, cell-based
[34] = system: U-87MG ATCC; test: Anti-vasculogenic activity in human U87 cells assessed as reduction in formation of blood-vessel like tubular structures at 1 uM after 24 hrs by matrigel based light microscopic analysis; assay type: functional, cell-based
[35] = system: U-87MG ATCC; test: Anti-vasculogenic activity in human U87 cells assessed as reduction in formation of small stray colonies at 1 uM after 24 hrs by matrigel based light microscopic analysis; assay type: functional, cell-based
[36] = Cytotoxicity against human U87 cells assessed as cell viability at 10 nmol after 24 hrs by MTT assay relative to control; assay type: cell-based, U-87MG ATCC; conditions: read-out: Activity

## CCN1C/C(=C\c2ccc(S(F)(F)(F)(F)F)cc2)C(=O)/C(=C/c2ccc(S(F)(F)(F)(F)F)cc2)C1
[1]
  Activity: Active
[2]
  Activity: Dose-dependent effect
[2]; 518A2, 72 h
  IC50: 990 nM
[3]
  Activity: Dose-dependent effect
[3]; HT-29, 72 h
  IC50: 290 nM
[4]
  Activity: Dose-dependent effect
[4]; HCT-116, 72 h
  IC50: 240 nM
[5]
  Activity: Dose-dependent effect
[5]; DLD-1, 72 h
  IC50: 330 nM
[6]
  Activity: Dose-dependent effect
[6]; PANC-1, 72 h
  IC50: 1100 nM
[7]
  IC50: 640 nM
[8]
  Activity: Dose-dependent effect
[9]
  IC50: 400 nM
[10]
  Activity: Dose-dependent effect
[11]
  IC50: 930 nM
[12]
  Activity: Dose-dependent effect
[13]
  IC50: 3200 nM
[14]
  Activity: 13.2%
[15]
  Activity: 12.8%
[16]
  Activity: 16.6%
[17]
  Activity: 46.7%
[18]
  Activity: 43.1%
[19]
  Activity: 35.9%
[20]
  Activity: 8.1%
[21]
  Activity: 12%
[22]
  Activity: 16.5%
[23]
  Activity: 32.1%
[24]
  Activity: 32.1%
[25]
  Activity: 31%
[26]
  Activity: Active
[27]
  inhibition: Active
[28]
  Activity: Active
[29]
  Activity: 77%
[30]
  Activity: 51%
[31]
  Activity: Toxic
[32]
  Activity: 67%
[33]
  Activity: inactive
[34]
  Activity: inactive
[35]
  Activity: inactive
[36]
  viability at 24 h, 10 nmol: > 85%
